Assay results published in publication PMC12040169 (PLOS Biology, 2025).

Experiment: in vitro
Conditions: human, hela cells, % viability

SMILES	viability at 28.5 h, 10 µM
CCN1CCC2(C/C=C/CCOc3ccccc3C(=O)NCCCNC2=O)CC1 [CBK292060]	83.3%
CCN1CCC2(C/C=C/CNC(=O)c3ccccc3OCCN(C)C2=O)CC1 [CBK292061]	102%
O=C1N[C@H]2CCCN(C(=O)c3cc(=O)[nH]c(=O)[nH]3)[C@H]2C/C=C/CCOc2ccccc21 [CBK292065]	107%
O=C1CNC(=O)C2(C/C=C/C[C@H]3COCC[C@H]3N1)CCN(C(=O)Cc1cccnc1)CC2 [CBK292068]	103%
Cn1cc(C(=O)N2CCC3(C/C=C/C[C@H]4COCC[C@H]4NC(=O)CNC3=O)CC2)cn1 [CBK292069]	103%
Cc1ccn(CCC(=O)N2CCC3(C/C=C/C[C@H]4COCC[C@@H]4NC(=O)CNC3=O)CC2)n1 [CBK292070]	86%
Cc1noc(C)c1CC(=O)N1CCC2(C/C=C/C[C@H]3COCC[C@@H]3NC(=O)CNC2=O)CC1 [CBK292071]	92.3%
O=C1CNC(=O)C2(C/C=C/C[C@H]3COCC[C@H]3N1)CCN(CCOc1ccccc1)CC2 [CBK292077]	107%
CN(CC(=O)N1CCC[C@@H]2[C@H]1C/C=C/Cc1ccccc1OCC(=O)N2C)Cc1ccccn1 [CBK292078]	91.5%
CN1C(=O)COc2ccccc2C/C=C/C[C@@H]2[C@H]1CCCN2C(=O)CNS(C)(=O)=O [CBK292079]	87.7%
O=C1NC/C=C/CC2(CCN(c3ncccn3)CC2)C(=O)NCCOc2ccccc21 [CBK292081]	90.3%
O=C1COc2ccccc2C/C=C/C[C@H]2CN(C(=O)Cn3ncc4ccccc4c3=O)CC[C@H]2N1 [CBK292084]	85.6%
Cc1ncoc1C(=O)N1CCC2(C/C=C/C[C@H]3COCC[C@H]3NC(=O)CNC2=O)CC1 [CBK292086]	89.3%
Cc1nc(C(=O)N2CCC3(CCCCOc4ccccc4C(=O)NCCNC3=O)CC2)co1 [CBK292089]	103%
CC(=O)N1CC[C@H]2NC(=O)CNC(=O)C3(CCCC[C@H]2C1)CCN(C(=O)/C=C/c1ccccc1)CC3 [CBK292092]	105%
CN1C(=O)COc2ccccc2C/C=C/C[C@@H]2[C@H]1CCCN2C(=O)Cn1ccc(=O)[nH]c1=O [CBK292093]	102%
O=C1NC/C=C/CC2(CCN(Cc3ccccc3)CC2)C(=O)NCCOc2ccccc21 [CBK292097]	103%
CN1C(=O)COc2ccccc2CCCC[C@@H]2[C@H]1CCCN2CC(N)=O [CBK292098]	105%
Cc1ccc(=O)n(CC(=O)N2CCC[C@@H]3NC(=O)c4ccccc4OCCCCC[C@@H]32)n1 [CBK292100]	94%
CC(=O)N1CC[C@H]2NC(=O)CNC(=O)C3(CCCC[C@H]2C1)CCN(C(=O)COc1ccccc1)CC3 [CBK292101]	100%
CNC(=O)CN1CCC[C@@H]2NC(=O)c3ccccc3OCCCCC[C@@H]21 [CBK292104]	104%
O=C1NCCNC(=O)C2(CCCCOc3ccccc31)CCN(C(=O)c1ccnnc1)CC2 [CBK292105]	107%
CC(=O)N1CCC2(C/C=C/C[C@H]3CN(C(=O)C4CCC4)CC[C@H]3NC(=O)CNC2=O)CC1 [CBK292108]	105%

SMILES	viability at 28.5 h, 10 µM
CN1C(=O)COc2ccccc2CCCC[C@@H]2[C@H]1CCCN2C(=O)c1cc(=O)[nH]c(=O)[nH]1 [CBK292110]	83.3%
CN1C(=O)COc2ccccc2CCCC[C@@H]2[C@H]1CCCN2CCO [CBK292112]	103%
Cc1nc(CC(=O)N2CCC[C@@H]3NC(=O)c4ccccc4OCCCCC[C@@H]32)cs1 [CBK292113]	102%
CC(=O)N1CCC2(CCCC[C@H]3CN(C(=O)CCC(C)C)CC[C@@H]3NC(=O)CNC2=O)CC1 [CBK292124]	103%
O=C1NCCNC(=O)C2(C/C=C/COc3ccccc31)CCCN(Cc1cscn1)C2 (stereo not drawn) [CBK292125]	92.2%
O=C1COc2ccccc2C/C=C/CC2(CCN(Cc3cncnc3)CC2)CN1 [CBK292130]	112%
CC(=O)N1CCC2(CCCC[C@H]3CN(C(C)C)CC[C@@H]3NC(=O)CNC2=O)CC1 [CBK292133]	102%
COCCN1CC[C@@H]2[C@@H](C/C=C/Cc3ccccc3OCC(=O)N2C)C1 [CBK292134]	98%
O=C1COc2ccccc2C/C=C/CC2(CCCN(C(=O)CCN3CCCC3)C2)CN1 (stereo not drawn) [CBK292136]	102%
CC(=O)N1CC[C@H]2NC(=O)CNC(=O)C3(CCCC[C@H]2C1)CCN(C(=O)CCn1ccnc1)CC3 [CBK292138]	111%
O=C1N[C@@H]2CCN(CC(=O)N3CCCC3)C[C@@H]2CCCCCOc2ccccc21 [CBK292141]	107%
O=C1CNC(=O)C2(C/C=C/C[C@H]3COCC[C@H]3N1)CCN(C(=O)C1CCOCC1)CC2 [CBK292143]	84.9%
CN1C(=O)c2ccccc2OCCCCC[C@H]2[C@@H]1CCCN2C(=O)CN1CCN(CCO)CC1 [CBK292144]	99%
O=C1COc2ccccc2C/C=C/C[C@H]2CN(C(=O)CN3CCN(CCO)CC3)CC[C@H]2N1 [CBK292146]	110%
CC(=O)N1CCC2(C/C=C/C[C@H]3CN(CC(N)=O)CC[C@H]3NC(=O)CNC2=O)CC1 [CBK292148]	97.6%
O=C1COc2ccccc2C(=O)N[C@@H]2CCOC[C@@H]2C/C=C/C[C@H]2[C@H](CCCN2CCO)N1 [CBK292149]	106%
CN1C(=O)COc2ccccc2CCCC[C@@H]2[C@H]1CCCN2C(=O)CCn1ccnc1 [CBK292150]	96.6%
O=C1COc2ccccc2C/C=C/CC2(CCN(C(=O)Cc3cccnc3)CC2)C(=O)NCCN1 [CBK292153]	110%
Cc1cc(C(=O)N2CCC3(C/C=C/CCOc4ccccc4C(=O)NCCCNC3=O)CC2)no1 [CBK292155]	92.6%
O=C1CNC(=O)C2(C/C=C/C[C@H]3COCC[C@H]3N1)CCN(Cc1ccc(F)cn1)CC2 [CBK292160]	110%
O=C1CNC(=O)C2(C/C=C/C[C@H]3COCC[C@H]3N1)CCN(C(=O)c1ccc(=O)[nH]n1)CC2 [CBK292161]	110%
CC(=O)N1CCC2(CCCC[C@H]3CN(CC(=O)N(C)C)CC[C@@H]3NC(=O)CNC2=O)CC1 [CBK292163]	94.6%
CC(=O)N1CCC[C@H]2NC(=O)CNC(=O)C3(C/C=C/C[C@H]21)CCN(Cc1cc[nH]n1)CC3 [CBK292164]	103%

SMILES	viability at 28.5 h, 10 µM
O=C1COc2ccccc2CCCCC2(CCCNC2)CN1 (stereo not drawn) [CBK292166]	90.5%
CC(=O)N1CCC2(C/C=C/C[C@H]3CN(Cc4nccs4)CC[C@H]3NC(=O)CNC2=O)CC1 [CBK292169]	111%
COCCOCC(=O)N1CCC2(C/C=C/C[C@H]3COCC[C@H]3NC(=O)CNC2=O)CC1 [CBK292170]	105%
CC(=O)N1CC[C@H]2NC(=O)CNC(=O)C3(CCCC[C@H]2C1)CCN(C(=O)c1ccc(C)nc1)CC3 [CBK292172]	94.7%
CC(=O)N1CCC[C@H]2NC(=O)CNC(=O)C3(C/C=C/C[C@H]21)CCN(C(=O)CCC(=O)O)CC3 [CBK292174]	85%
CN1CCOc2ccccc2C(=O)NC/C=C/CC2(CCCN(Cc3cc[nH]n3)C2)C1=O (stereo not drawn) [CBK292175]	103%
CC(=O)N1CCC[C@H]2NC(=O)CNC(=O)C3(C/C=C/C[C@H]21)CCN(C(=O)c1cc(C)no1)CC3 [CBK292176]	104%
Cn1ccc(C(=O)N2CCCC3(C/C=C/Cc4ccccc4OCC(=O)NC3)C2)cc1=O (stereo not drawn) [CBK292179]	107%
CN1C(=O)COc2ccccc2CCCC[C@@H]2[C@H]1CCCN2C(=O)CCCn1cncn1 [CBK292182]	95.3%
O=C1NC[C@@H](Cc2ccccc2)NC(=O)C2(C/C=C/COc3ccccc31)CCN(C(=O)CN1CCCC1)CC2 [CBK292184]	103%
CC(=O)N[C@H](C(=O)N1CC[C@@H]2NC(=O)[C@@H](Cc3ccccc3)NC(=O)C3(C/C=C/C[C@@H]2C1)CCOCC3)[C@@H](C)O [CBK292186]	96.9%
Cc1ncsc1C(=O)N1CCC2(C/C=C/C[C@H]3COCC[C@H]3NC(=O)[C@@H](CC(C)C)NC2=O)CC1 [CBK292187]	107%
CN1CC(=O)N2CCOC(C2)c2cccc(n2)NC(=O)C/C=C/CC2(CCN(c3ncccn3)CC2)C1=O (stereo not drawn) [CBK292188]	95.2%
CC(=O)N[C@@H](Cc1ccccc1)C(=O)N1CC[C@H]2NC(=O)[C@H](Cc3ccccc3)NC(=O)C3(C/C=C/C[C@@H]2C1)CCOCC3 [CBK292190]	82.2%
CC(C)C[C@@H]1NC(=O)C2(C/C=C/C[C@@H]3COCC[C@@H]3NC1=O)CCN(C(=O)[C@H](CO)NC(=O)OCc1ccccc1)CC2 [CBK292191]	102%
O=C1NC[C@@H](Cc2ccccc2)NC(=O)C2(C/C=C/COc3ccccc31)CCN(Cc1ncccc1F)CC2 [CBK292193]	111%
CN1CC(=O)N2CCOC(C2)c2cccc(n2)NC(=O)C/C=C/CC2(CCN(Cc3ncc[nH]3)CC2)C1=O (stereo not drawn) [CBK292196]	103%
CC(=O)N[C@H](C(=O)N1CCC2(C/C=C/C[C@H]3COCC[C@H]3NC(=O)[C@@H](CC(C)C)NC2=O)CC1)[C@@H](C)OC(C)(C)C [CBK292197]	90.7%
CC(=O)N[C@@H](C(=O)N1CC[C@@H]2NC(=O)[C@@H](Cc3ccccc3)NC(=O)C3(C/C=C/C[C@H]2C1)CCOCC3)C(C)C [CBK292198]	97.1%
NC(=O)CC[C@H](N)C(=O)N1CC[C@@H]2NC(=O)[C@H](Cc3ccccc3)NC(=O)C3(C/C=C/C[C@@H]2C1)CCOCC3 [CBK292199]	109%
CC(=O)N[C@H](C(=O)N1CC[C@H]2NC(=O)[C@@H](Cc3ccccc3)NC(=O)C3(C/C=C/C[C@H]2C1)CCOCC3)[C@@H](C)OC(C)(C)C [CBK292203]	103%
CC(=O)N1C[C@H](O)C[C@H]1C(=O)N1CC[C@H]2NC(=O)[C@H](Cc3ccccc3)NC(=O)C3(C/C=C/C[C@H]2C1)CCOCC3 [CBK292204]	88.7%
CC(=O)N[C@H](Cc1c[nH]c2ccccc12)C(=O)N1CC[C@H]2NC(=O)[C@H](Cc3ccccc3)NC(=O)C3(C/C=C/C[C@H]2C1)CCOCC3 [CBK292205]	89.9%
